Data from US6440946B1, “Multiple-agents-binding compound, production and use thereof” (Takeda Chemical Industries, Ltd., priority 1999, dated 2002).

Legend:
[1] = tested on: HIV-1 IIIB (HTLV-IIIB) virus in CEMM-SS cells; test: Anti-HIV activity: prevention of death of HIV-infected T cell lymphocytes (MTT method); assay type: cell-based, HIV type 1 virus; conditions: 6 days
Experimental: Anti-HIV activity of the compounds of the present invention was evaluated according to the method described below.
The inhibitory effect on virus particle formation of HIV virus with which T cell lymphocytes were infected was evaluated according to ability to prevent T cell lymphocytes infected with said HIV virus from dying.
According to the test method described in the literature (O. S. Weislow et al., J. Natl. Cancer Inst., 81, 577 (1989), etc.), anti-HIV activity of the compounds of the present invention was evaluated. As the T cell lymphocytes, CEMM-SS cells were used. As the HIV virus, HIV-1 IIIB (HTLV-IIIB) virus which is HIV type 1 virus was used. On 96 well microtiter plate containing 200 μl of culture medium (RPMI-1640 medium containing 50 μg/ml of gentamicin and 10% fetal calf serum), determined concentration of Test Compound and HIV-1 IIIB virus (the mount of virus per well is that necessary for completely killing infected cells 6 days after infection), CEMM-SS cell (2.5×10^4 cells/ml) were inoculated and cultivated at 37° C. for 6 days in the incubator containing 5% CO2. Thereafter, the number of living cells was determined by the MTT method (R. Pauwels et al., J. Virol. Methods, 20, 309 (1988), etc.), and the determined value was defined as (ODT)HIV. HIV-non-infected CEMM-SS cells and HIV-infected CEMM-SS cells were respectively cultivated under the same conditions provided that the concentration of Test Compound was zero. Thereafter, the number of living cells was determined, and the respectively determined value was defined as (ODC)MOCK and (ODC)HIV. Using these values, (ODT)HIV, (ODC)MOCK and (ODC)HIV, inhibitory rate, ratio preventing T cell lymphocytes infected with said HIV virus from dying, was calculated according to the following formula:
[(ODT)HIV−(ODC)HIV][/(ODC)MOCK−(ODC)HIV]
Based on EC50 which is the concentration of Test Compound making the calculated inhibitory rate 50%, anti-HIV activity was evaluated.
(§1) The results of HIV protease inhibitory activity and anti-HIV activity of the compound of the present invention evaluated by the above-mentioned methods were shown in Table 1, together with the results of Compound of Reference Example. In Table 1, HIV protease inhibitory activity is shown as the inhibitory rate when the final concentration of Test Compound in the reaction solution was 5 μM, and the values in parentheses correspond to the inhibitory rate when the final concentration of Test Compound in the reaction solution was 50 nM.

[2] = molecular target: T1, recombinant HIV protease (Human immunodeficiency virus type 1 group M subtype B, UniProt P12497); test: HIV protease inhibitory activity (cleavage of synthetic nonapeptide substrate, reverse phase HPLC); assay type: biochemical; conditions: pH5.5, 37° C., 60 minutes; for Inhibition of HIV protease (inhibitory rate) / inhibition at 5 µM: final concentration of Test Compound 5 μM; for inhibition at 5 µM: read-out: Inhibition of HIV protease (inhibitory rate)
T1 construct: Instead of natural HIV protease, recombinant HIV protease already reported in the literature
Experimental: HIV protease inhibitory activity of the compounds of the present invention [Compounds of Working Examples 1-7] was evaluated according to the test method already reported in the literature (Journal of Synthetic Organic Chemistry, Japan, 52,403-412 (1994), Japanese Patent Unexamined Publication No. 1993-170722, etc.). In addition, using Compounds of Reference Examples 1-4, similar test was carried out.
Instead of natural HIV protease, recombinant HIV protease already reported in the literature (cf. Science, 230, 949 (1985)) was used for the evaluation of HIV protease inhibitory activity (cf. Japanese Patent Unexamined Publication No. 1993-170722, etc.). As the substrate of said recombinant HIV protease, synthetic nonapeptide substrate (Ac-Arg-Ala-Ser-Gln-Asn-Tyr-Pro-Val-Val-NH2 trifluoroacetate) was used, and protease activity was determined.
Fifteen μl of the reaction solution containing 100 mM (final concentration) of MES buffer solution (pH5.5), 40 mM of said substrate, 9.2 μg of said recombinant HIV protease, and various concentration of Test Compound (for example, Test Compound was previously dissolved in DMSO, etc.) was used, and the reaction was started after said recombinant HIV protease had been added to the reaction solution. The reaction was carried out at 37° C. for 60 minutes, and then, the reaction was stopped by addition of 15 μl of acetonitrile. The amount of the peptide fragment produced by cleaving the substrate between -Tyr . . . Pro- of said substrate was determined according to the internal standard method of reverse phase HPLC. When the concentration of test compound was zero, protease activity was defined as 100%; when the peptide fragment was not detected, remaining protease activity was defined as 0%; and remaining protease activity was calculated based on the determined concentration of the peptide fragment. When the remaining protease activity was 0%, inhibition rate which indicates activity inhibiting HIV protease was defined as 100%, and the inhibition rate was defined according to the value taken the remaining protease activity indicated by said percentage from 100%.
as §1

[3] = Human immunodeficiency virus 1, 144 h
[4] = final concentration of Test Compound 50 nM

Structure (SMILES) | EC50 [1, 3] | Inhibition of HIV protease (inhibitory rate, values in parentheses) [2, 4] | Inhibition of HIV protease (inhibitory rate) [2] | other results
Cc1cn([C@H]2C[C@H](N=[N+]=[N-])[C@@H](CO)O2)c(=O)[nH]c1=O [AZT, 3′-azido-3′-deoxythymidine, reference compound] | 11 nM | – | – | –
CC(C)(C)NC(=O)[C@@H]1CSCN1C(=O)[C@@H](O)[C@H](Cc1ccccc1)NC(=O)CC(C)(C)C(=O)O [Ref. Ex. 1, (R)-N-t-butyl-3-[(2S,3S)-3-(3,3-dimethylsuccinyl)amino-2-hydroxy-4-phenylbutyryl]-1,3-thiazolidine-4-carboxamide] | – | (20%) | 93% | –
CC(C)(C)NC(=O)[C@H]1N(C(=O)[C@@H](O)[C@H](Cc2ccccc2)NC(=O)CC(C)(C)C(=O)O)CSC1(C)C [Ref. Ex. 2, (R)-N-t-butyl-3-[(2S,3S)-3-(3,3-dimethylsuccinyl)amino-2-hydroxy-4-phenylbutyryl]-5,5-dimethyl-1,3-thiazolidine-4-carboxamide] | – | (76%) | 99% | –
Cc1ccccc1CNC(=O)[C@@H]1CSCN1C(=O)[C@@H](O)[C@H](Cc1ccccc1)NC(=O)CC(C)(C)C(=O)O [Ref. Ex. 3, (R)-N-(2-methylbenzyl)-3-[(2S,3S)-3-(3,3-dimethylsuccinyl)amino-2-hydroxy-4-phenylbutyryl]-1,3-thiazolidine-4-carboxamide] | – | – | 87% | –
Cc1ccccc1CNC(=O)[C@H]1N(C(=O)[C@@H](O)[C@H](Cc2ccccc2)NC(=O)CC(C)(C)C(=O)O)CSC1(C)C [Ref. Ex. 4, (R)-N-(2-methylbenzyl)-3-[(2S,3S)-3-(3,3-dimethylsuccinyl)amino-2-hydroxy-4-phenylbutyryl]-5,5-dimethyl-1,3-thiazolidine-4-carboxamide] | – | (78%) | 100% | –
Cc1ccccc1CNC(=O)[C@@H]1CSCN1C(=O)[C@@H](O)[C@H](Cc1ccccc1)NC(=O)CC(C)(C)C(=O)OC[C@H]1O[C@@H](n2cc(C)c(=O)[nH]c2=O)CC1N=[N+]=[N-] (some centres unmarked) [Working Ex. 4] | – | – | 11% | EC50 [1]: 3.8 nM
Cc1ccccc1CNC(=O)[C@@H]1CSCN1C(=O)[C@@H](O)[C@H](Cc1ccccc1)NC(=O)C(C)C(C)C(=O)OC[C@H]1O[C@@H](n2cc(C)c(=O)[nH]c2=O)CC1N=[N+]=[N-] (stereo partly drawn) [Working Ex. 5, {(2S,5R)-3-azido-5-[5-methyl-2,4-dioxo-3,4-dihydro-1(2H)-pyrimidinyl]tetrahydro-2-furanyl}methyl 4-([(1S,2S)-1-benzyl-2-hydroxy-3-((4R)-4-([(2-methylbenzyl)amino]carbonyl}-1,3-thiazolidin-3-yl)-3-oxopropyl]amino)-2,3-dimethyl-4-oxobutanoate] | 8.9 nM | – | – | inhibition at 5 µM ([2]; pH 5.5): 57%
Cc1ccccc1CNC(=O)[C@H]1N(C(=O)[C@@H](O)[C@H](Cc2ccccc2)NC(=O)CC(C)(C)C(=O)OC[C@H]2O[C@@H](n3cc(C)c(=O)[nH]c3=O)CC2N=[N+]=[N-])CSC1(C)C (some centres unmarked) [Working Ex. 6] | – | – | 83% | EC50 [1]: 0.24 nM
Cc1ccccc1CNC(=O)[C@H]1N(C(=O)[C@@H](O)[C@H](Cc2ccccc2)NC(=O)C(C)C(C)C(=O)OC[C@H]2O[C@@H](n3cc(C)c(=O)[nH]c3=O)CC2N=[N+]=[N-])CSC1(C)C (stereo partly drawn) [Working Ex. 7, {(2S,5R)-3-azido-5-[5-methyl-2,4-dioxo-3,4-dihydro-1(2H)-pyrimidinyl]tetrahydro-2-furanyl}methyl 4-([(1S,2S)-1-benzyl-3-((4R)-5,5-dimethyl-4-{[(2-methylbenzyl)amino]carbonyl}-1,3-thiazolidin-3-yl)-2-hydroxy-3-oxopropyl]amino}-2,3-dimethyl-4-oxobutanoate] | 7.3 nM | – | – | inhibition at 0.05 µM ([2]; pH 5.5, final concentration of Test Compound 50 nM, read-out: Inhibition of HIV protease (inhibitory rate, values in parentheses)): 39%; inhibition at 5 µM ([2]; pH 5.5): 96%
